According to patent US10202387B2, “Heterocyclyl linked imidazopyridazine derivatives as PI3KB inhibitors” (Janssen Pharmaceutica NV, priority 2014, dated 2019):

Tests used:
[1] = test system: Akt phosphorylated at Thr308 in PC-3 cells; test: Cellular assay: phosphorylation of Akt (Thr308) in PC-3 cells, MSD ELISA; type: cell-based; conditions: Homo sapiens, 1 h, 60 min incubation with compound, read-out: IC50 pAkt_Thr308
Procedure: (§1) Cellular activity of PI3Kβ inhibitors was determined by quantifying the phosphorylation of Akt in PC-3 cells. Akt phosphorylated at Ser473 and Thr308 were measured using an enzyme-linked immunosorbent assay (ELISA; Meso Scale Discovery (MSD). Gaithersburg, Md.) and specific primary antibodies from MSD.
(§2) On day 1, PC3 cells (ATCC […]) were seeded into PerkinElmer MW96 plates at 25.000 cells per well, in 75 μl complete culture medium (DMEM (Dulbecco's Modified Eagle's Medium) high glucose. AQmedia™, D0819, Sigma-Aldrich) containing 10% heat inactivated FCS (Fetal Bovine Serum) and incubated at 37° C., 5% CO2 during 24 hours. On day 2, compound or DMSO (dimethyl sulfoxide) (0.3%) was added and cells were further incubated for 60 min at 37° C., 5% CO2 in a total volume of 100 μl of medium.
(§3) The phosphoprotein assay was executed according to vendor instructions in the Phospho-Akt (Ser473) Assay Whole Cell Lysate Kit (MSD #K15100D-3) and the Phospho-Akt (Thr308) Assay Whole Cell Lysate Kit (MSD #K151DYD-3) using the lysis, blocking and wash buffer provided.
(§4) Briefly, at the end of the cell treatment period, media were removed by aspiration and adherent cells were lysed in 50 μl ice-cold lysis buffer. MSD plates are supplied pre-coated with capture antibodies for Phospho-Akt (Ser473 and Thr308). After blocking, lysates from tissue culture plates were added and plates were washed. Then, a solution containing the detection antibody (anti-total Akt conjugated with an electrochemiluminescent compound-MSD Sulfo-tag label) was added. The signals were detected using an MSD SECTOR Imager 6000 and are proportional to the phospho-Akt titres.
(§5) Data were processed. The percentage of inhibition was plotted against the log concentration of test compounds, and the sigmoidal log concentration-effect curve of best fit was calculated by nonlinear regression analysis. From these concentration-response curves, the IC50 values were calculated. Five concentrations were used for curve fitting.

PIK3Cδ_h = biological target: T1, PIK3Cδ_h (Homo sapiens, UniProt O00329); test: Enzyme binding assay (KINOMEscan); conditions: DiscoveRx
T1 construct: purchased DiscoveRx Corporation, San Diego (KINOMEscan service)
T1 sequence (O00329 1-1044): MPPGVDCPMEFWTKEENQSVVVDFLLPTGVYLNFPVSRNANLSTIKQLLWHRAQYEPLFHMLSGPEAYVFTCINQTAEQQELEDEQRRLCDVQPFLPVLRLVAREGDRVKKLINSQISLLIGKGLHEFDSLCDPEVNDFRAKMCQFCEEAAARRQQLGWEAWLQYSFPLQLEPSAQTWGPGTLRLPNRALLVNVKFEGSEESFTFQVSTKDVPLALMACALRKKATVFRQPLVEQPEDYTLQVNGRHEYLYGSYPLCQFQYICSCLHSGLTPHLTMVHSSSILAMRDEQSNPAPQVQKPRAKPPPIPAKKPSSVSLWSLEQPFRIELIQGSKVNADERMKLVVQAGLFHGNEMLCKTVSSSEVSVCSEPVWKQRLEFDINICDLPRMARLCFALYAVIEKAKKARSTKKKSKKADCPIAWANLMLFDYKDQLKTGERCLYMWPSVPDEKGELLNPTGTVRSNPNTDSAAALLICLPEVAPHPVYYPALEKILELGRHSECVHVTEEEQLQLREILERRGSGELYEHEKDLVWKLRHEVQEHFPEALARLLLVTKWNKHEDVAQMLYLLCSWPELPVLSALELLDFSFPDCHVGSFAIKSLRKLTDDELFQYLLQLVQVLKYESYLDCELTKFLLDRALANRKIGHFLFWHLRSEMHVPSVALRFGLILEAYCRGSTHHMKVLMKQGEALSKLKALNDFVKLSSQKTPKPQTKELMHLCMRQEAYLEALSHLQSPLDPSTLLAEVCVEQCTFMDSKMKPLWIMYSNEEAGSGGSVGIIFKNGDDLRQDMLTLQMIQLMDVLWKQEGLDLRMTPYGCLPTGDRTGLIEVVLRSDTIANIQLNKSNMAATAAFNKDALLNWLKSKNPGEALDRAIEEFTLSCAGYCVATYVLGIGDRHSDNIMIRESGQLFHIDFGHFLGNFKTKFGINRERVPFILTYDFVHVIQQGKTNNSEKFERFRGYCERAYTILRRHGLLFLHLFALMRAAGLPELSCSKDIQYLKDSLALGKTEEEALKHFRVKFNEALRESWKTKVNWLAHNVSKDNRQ
Procedure: (§6) Enzyme Binding Assays (KINOMEscan®)
(§7) Kinase enzyme binding affinities of compounds disclosed herein were determined using the KINOMEscan technology performed by DiscoveRx Corporation, San Diego, Calif., USA (www.kinomescan.com). Table A reports the obtained Kd values (nM), with the Kd being the inhibitor binding constant: […]

PIK3Cβ_h = biological target: T2, PIK3Cβ_h (Homo sapiens, UniProt P42338); test: Enzyme binding assay (KINOMEscan); conditions: DiscoveRx
T2 construct: purchased DiscoveRx Corporation, San Diego (KINOMEscan service)
Procedure: as §6, §7

MTOR_h = biological target: T3, MTOR_h (Homo sapiens, UniProt P42345); test: Enzyme binding assay (KINOMEscan); conditions: DiscoveRx
T3 construct: purchased DiscoveRx Corporation, San Diego (KINOMEscan service)
Procedure: as §6, §7

PIK3Cγ_h = biological target: T4, PIK3Cγ_h (Homo sapiens, UniProt P48736); test: Enzyme binding assay (KINOMEscan); conditions: DiscoveRx
T4 construct: purchased DiscoveRx Corporation, San Diego (KINOMEscan service)
Procedure: as §6, §7

PIK3Cα_h = biological target: T5, PIK3Cα_h (Homo sapiens, UniProt P42336); test: Enzyme binding assay (KINOMEscan); conditions: DiscoveRx
T5 construct: purchased DiscoveRx Corporation, San Diego (KINOMEscan service)
Procedure: as §6, §7

[2] = test system: Akt phosphorylated at Ser473 in PC-3 cells; test: Cellular assay: phosphorylation of Akt (Ser473) in PC-3 cells, MSD ELISA; type: cell-based; conditions: Homo sapiens, 1 h, 60 min incubation with compound, read-out: IC50 pAkt_S473
Procedure: as §1, §2, §3, §4, §5

T2 sequence (P42338 whole entry): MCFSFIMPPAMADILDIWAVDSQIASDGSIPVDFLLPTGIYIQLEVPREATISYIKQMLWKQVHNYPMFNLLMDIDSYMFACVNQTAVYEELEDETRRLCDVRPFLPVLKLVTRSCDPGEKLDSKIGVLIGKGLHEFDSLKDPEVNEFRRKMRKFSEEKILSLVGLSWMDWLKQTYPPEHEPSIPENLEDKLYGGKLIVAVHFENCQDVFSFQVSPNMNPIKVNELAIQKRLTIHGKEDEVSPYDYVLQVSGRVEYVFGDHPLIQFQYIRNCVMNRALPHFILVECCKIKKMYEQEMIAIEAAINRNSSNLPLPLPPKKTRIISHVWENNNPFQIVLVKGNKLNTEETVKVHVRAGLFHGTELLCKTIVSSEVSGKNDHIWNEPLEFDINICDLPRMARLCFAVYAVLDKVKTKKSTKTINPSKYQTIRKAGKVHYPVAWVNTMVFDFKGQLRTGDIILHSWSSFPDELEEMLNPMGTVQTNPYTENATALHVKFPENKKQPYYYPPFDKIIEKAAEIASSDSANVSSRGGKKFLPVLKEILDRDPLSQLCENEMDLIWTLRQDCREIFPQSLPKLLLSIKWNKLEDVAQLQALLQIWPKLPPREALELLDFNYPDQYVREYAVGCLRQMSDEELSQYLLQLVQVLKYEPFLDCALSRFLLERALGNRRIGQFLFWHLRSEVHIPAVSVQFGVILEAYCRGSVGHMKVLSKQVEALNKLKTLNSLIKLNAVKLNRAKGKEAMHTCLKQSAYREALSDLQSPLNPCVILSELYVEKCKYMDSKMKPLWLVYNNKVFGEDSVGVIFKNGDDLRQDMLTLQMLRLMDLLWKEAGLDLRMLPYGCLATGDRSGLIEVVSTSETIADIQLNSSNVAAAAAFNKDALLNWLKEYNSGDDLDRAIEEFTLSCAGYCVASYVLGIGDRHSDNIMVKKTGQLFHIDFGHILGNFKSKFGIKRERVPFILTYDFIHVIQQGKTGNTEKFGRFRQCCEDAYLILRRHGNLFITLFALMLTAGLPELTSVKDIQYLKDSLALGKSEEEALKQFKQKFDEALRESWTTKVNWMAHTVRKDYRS
T4 sequence (P48736 whole entry): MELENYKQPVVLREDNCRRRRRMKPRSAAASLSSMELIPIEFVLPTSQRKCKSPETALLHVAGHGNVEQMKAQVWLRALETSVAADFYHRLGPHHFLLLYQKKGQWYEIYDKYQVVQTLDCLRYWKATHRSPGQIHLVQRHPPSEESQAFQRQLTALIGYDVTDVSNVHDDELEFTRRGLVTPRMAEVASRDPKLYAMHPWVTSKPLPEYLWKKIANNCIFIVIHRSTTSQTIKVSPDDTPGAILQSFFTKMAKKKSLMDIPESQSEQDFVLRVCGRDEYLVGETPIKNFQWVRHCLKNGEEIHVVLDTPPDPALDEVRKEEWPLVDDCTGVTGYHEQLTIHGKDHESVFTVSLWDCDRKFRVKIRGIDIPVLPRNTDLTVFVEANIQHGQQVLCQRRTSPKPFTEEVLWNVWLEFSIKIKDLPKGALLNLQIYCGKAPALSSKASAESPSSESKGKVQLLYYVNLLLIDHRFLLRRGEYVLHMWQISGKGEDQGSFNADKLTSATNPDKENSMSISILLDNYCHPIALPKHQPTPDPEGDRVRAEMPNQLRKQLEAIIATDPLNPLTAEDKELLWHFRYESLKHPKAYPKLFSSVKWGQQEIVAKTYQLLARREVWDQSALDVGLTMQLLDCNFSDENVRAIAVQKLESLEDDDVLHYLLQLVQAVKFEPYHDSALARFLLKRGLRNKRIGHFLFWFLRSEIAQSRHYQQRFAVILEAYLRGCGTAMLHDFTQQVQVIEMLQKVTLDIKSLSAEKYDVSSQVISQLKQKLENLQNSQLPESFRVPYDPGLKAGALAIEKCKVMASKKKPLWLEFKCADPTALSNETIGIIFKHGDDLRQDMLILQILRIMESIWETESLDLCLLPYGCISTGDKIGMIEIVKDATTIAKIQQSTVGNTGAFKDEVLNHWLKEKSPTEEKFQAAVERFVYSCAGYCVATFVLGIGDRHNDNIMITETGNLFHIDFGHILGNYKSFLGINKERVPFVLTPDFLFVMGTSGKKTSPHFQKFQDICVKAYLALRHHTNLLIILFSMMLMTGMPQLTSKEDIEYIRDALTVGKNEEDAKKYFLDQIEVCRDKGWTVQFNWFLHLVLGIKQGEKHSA
T5 sequence (P42336 whole entry): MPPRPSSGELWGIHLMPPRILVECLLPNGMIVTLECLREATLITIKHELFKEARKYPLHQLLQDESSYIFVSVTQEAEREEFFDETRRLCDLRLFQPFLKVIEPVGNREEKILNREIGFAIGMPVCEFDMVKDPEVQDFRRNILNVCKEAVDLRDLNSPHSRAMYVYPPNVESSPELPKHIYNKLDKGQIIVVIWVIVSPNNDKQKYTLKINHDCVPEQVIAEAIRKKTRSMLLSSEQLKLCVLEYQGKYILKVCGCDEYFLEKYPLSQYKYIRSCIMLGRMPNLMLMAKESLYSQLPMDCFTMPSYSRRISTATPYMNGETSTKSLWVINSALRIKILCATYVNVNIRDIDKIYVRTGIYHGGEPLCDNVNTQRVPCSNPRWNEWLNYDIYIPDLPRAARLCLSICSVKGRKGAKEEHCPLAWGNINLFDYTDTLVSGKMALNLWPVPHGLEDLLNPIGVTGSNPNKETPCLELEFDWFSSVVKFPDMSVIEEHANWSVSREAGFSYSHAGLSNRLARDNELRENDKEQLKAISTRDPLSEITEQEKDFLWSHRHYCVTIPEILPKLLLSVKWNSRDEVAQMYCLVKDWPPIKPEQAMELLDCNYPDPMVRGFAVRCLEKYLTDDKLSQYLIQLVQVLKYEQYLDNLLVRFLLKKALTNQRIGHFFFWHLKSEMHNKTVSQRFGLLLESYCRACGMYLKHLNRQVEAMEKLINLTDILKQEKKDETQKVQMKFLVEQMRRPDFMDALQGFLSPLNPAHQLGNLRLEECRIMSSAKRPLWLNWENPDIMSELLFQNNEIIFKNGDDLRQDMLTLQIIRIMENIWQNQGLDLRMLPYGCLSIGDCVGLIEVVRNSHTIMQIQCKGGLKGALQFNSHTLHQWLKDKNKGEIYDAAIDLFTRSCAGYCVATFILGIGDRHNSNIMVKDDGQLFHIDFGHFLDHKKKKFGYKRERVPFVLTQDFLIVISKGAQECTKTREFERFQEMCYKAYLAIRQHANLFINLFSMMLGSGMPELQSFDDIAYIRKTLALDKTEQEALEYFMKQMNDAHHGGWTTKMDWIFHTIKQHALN

| Structure (SMILES) | IC50 [1] [nM] | Kd (PIK3Cδ_h) [nM] | Kd (PIK3Cβ_h) [nM] | Kd (MTOR_h) [nM] | Kd (PIK3Cγ_h) [nM] | Kd (PIK3Cα_h) [nM] | IC50 [2] [nM] |
| --- | --- | --- | --- | --- | --- | --- | --- |
| Cc1c(Cc2c(CN3CCCC4(CNC4)C3)nc3c(N)cc(N4CCOCC4)nn23)cccc1C(F)(F)F [Compound 12] | ~87 | 89 | 1.7 | 11000 | 8510 | 18600 | 85 |
| Cc1c(Cc2c(CN3CC4(C3)CS(=O)(=O)C4)nc3c(C(=O)O)cc(N4CCOCC4)nn23)cccc1C(F)(F)F [Compound 28] | > 513 | 13 | 0.2 | 21400 | 15100 | 372 | > 513 |
| Cc1c(Cc2c(CN3CC(C)NC(C)C3)nc3c(N)cc(N4CCOCC4)nn23)cccc1C(F)(F)F (stereo not drawn) [Compound 10] | ~48 | 52 | 0.6 | 5750 | > 30200 | 4790 | ~42 |
| Cc1c(Nc2c(CN3CC(C)NC(C)C3)nc3c(C(N)=O)cc(N4CCOCC4)nn23)cccc1C(F)(F)F (stereo not drawn) [Compound 21] | ~69 | 129 | 1.1 | 20000 | 4170 | 1290 | 107 |
| Cc1c(Cc2c(CN3CCCC34CCS(=O)(=O)C4)nc3c(N)cc(N4CCOCC4)nn23)cccc1C(F)(F)F (stereo not drawn) [Compound 31] | 66 | 479 | 4.8 | > 30200 | > 30200 | > 30200 | 117 |
| Cc1c(Cc2c(CN3CC4(CC(O)C4)C3)nc3c(C(=O)O)cc(N4CCOCC4)nn23)cccc1C(F)(F)F [Compound 29] | > 513 | 112 | 0.7 | > 30200 | 28200 | 6310 | > 513 |
| Cc1c(Cc2c(CN3CCC(CS(C)(=O)=O)CC3)nc3c(N)cc(N4CCOCC4)nn23)cccc1C(F)(F)F [Compound 5] | 71 | 219 | 3.6 | > 30200 | > 30200 | 12000 | ~132 |
| Cc1c(Cc2c(CN3CCC4(CCS(=O)(=O)C4)C3)nc3c(N)cc(N4CCOCC4)nn23)cccc1C(F)(F)F (stereo not drawn) [Compound 34] | ~74 | 224 | 1.5 | 18200 | > 30200 | 6310 | 87 |
| Cc1c(Cc2c(CN3CCC(N)CC3)nc3c(N)cc(N4CCOCC4)nn23)cccc1C(F)(F)F [Compound 14] | 69 | 40 | 0.3 | 13800 | 4900 | 7410 | 68 |
| Cc1c(Cc2c(CN3CC(C)NC(C)C3)nc3c(-c4ncc[nH]4)cc(N4CCOCC4)nn23)cccc1C(F)(F)F (stereo not drawn) [Compound 18] | 51 | 14 | 0.8 | 6070 | 3890 | 475 | 95 |
| Cc1c(Cc2c(CN3CC(O)C3)nc3c(N)cc(N4CCOCC4)nn23)cccc1C(F)(F)F [Compound 3] | 66 | 191 | 1.7 | 11000 | 16200 | 11500 | ~89 |

Stronger by IC50 [1], values ahead:

| IC50 [1] [nM] | Kd (PIK3Cδ_h) [nM] | Kd (PIK3Cβ_h) [nM] | Kd (MTOR_h) [nM] | Kd (PIK3Cγ_h) [nM] | Kd (PIK3Cα_h) [nM] | IC50 [2] [nM] | Structure (SMILES) |
| --- | --- | --- | --- | --- | --- | --- | --- |
| 44 | 7 | 0.2 | 3550 | 977 | 1380 | 28 | Cc1c(Cc2c(CN3CC4(CCCNC4)C3)nc3c(N)cc(N4CCOCC4)nn23)cccc1C(F)(F)F [Compound 13] |
| 43 | 10 | 0.4 | 1550 | 589 | 240 | 62 | Cc1c(Cc2c(CN3CC4(CC(O)C4)C3)nc3c(-c4cnc[nH]4)cc(N4CCOCC4)nn23)cccc1C(F)(F)F [Compound 27] |
| ~41 | 22 | 1.4 | 7760 | 2190 | 537 | 30 | Cc1c(Cc2c(CN3CCCC(CO)C3)nc3c(-c4cnc[nH]4)cc(N4CCOCC4)nn23)cccc1C(F)(F)F (stereo not drawn) [Compound 15] |
| 38 | 82 | 0.3 | 7390 | 11700 | 3550 | 44 | Cc1c(Cc2c(CNC(=O)[C@@H]3CCCN3C)nc3c(N)cc(N4CCOCC4)nn23)cccc1C(F)(F)F [Compound 39] |
| 31 | 14 | 0.2 | 355 | > 30200 | 1000 | 54 | Cc1c(Cc2c(CNC(=O)[C@@H]3C[C@@H](F)CN3)nc3c(N)cc(N4CCOCC4)nn23)cccc1C(F)(F)F [Compound 38] |
| 28 | 17 | 0.7 | 2000 | 5700 | 453 | 38 | Cc1c(Cc2c(CN3CC(C)NC(C)C3)nc3c(-c4cnc[nH]4)cc(N4CCOCC4)nn23)cccc1C(F)(F)F (stereo not drawn) [Compound 16] |
| 18 | 7 | 0.2 | 3220 | 8640 | 2050 | 27 | Cc1c(Cc2c(CNC(=O)[C@@H]3CCCN3)nc3c(N)cc(N4CCOCC4)nn23)cccc1C(F)(F)F [Compound 35] |
| 18 | 48 | 0.4 | 6760 | 21400 | 5370 | 60 | Cc1c(Cc2c(CNC(=O)[C@@H]3C[C@@H](O)CN3C)nc3c(N)cc(N4CCOCC4)nn23)cccc1C(F)(F)F [Compound 41] |
| 4 | 12 | 0.3 | 8130 | 20000 | 617 | 4 | [2H]C1([2H])OC([2H])([2H])C([2H])([2H])N(c2cc(N)c3nc(CN4CC5(C4)CS(=O)(=O)C5)c(Cc4cccc(C(F)(F)F)c4C)n3n2)C1([2H])[2H] [Compound 30] |
| 3 | 8 | 0.5 | 11400 | 27600 | 436 | 4 | Cc1c(Cc2c(CN3CC4(C3)CS(=O)(=O)C4)nc3c(N)cc(N4CCOCC4)nn23)cccc1C(F)(F)F [Compound 7] |
